Here are results for 33 molecules from patent US20080171737A1 (Wyeth, priority 2006, published 2008).

Each structure is given as a SMILES string. Where a name gives a salt, the structure may show the parent alone.

A word on the IC50: it is the point on the concentration scale where inhibition reaches its midpoint. A word on the inhibition: it is how much of the control response was suppressed.

The target of one test is T1, human hNET (Homo sapiens, UniProt P23975).
T1 construct: expressed in transfected cells; host or cells: MDCK-Net6 (MDCK cells stably transfected with hNET)
T1 sequence (P23975 whole entry): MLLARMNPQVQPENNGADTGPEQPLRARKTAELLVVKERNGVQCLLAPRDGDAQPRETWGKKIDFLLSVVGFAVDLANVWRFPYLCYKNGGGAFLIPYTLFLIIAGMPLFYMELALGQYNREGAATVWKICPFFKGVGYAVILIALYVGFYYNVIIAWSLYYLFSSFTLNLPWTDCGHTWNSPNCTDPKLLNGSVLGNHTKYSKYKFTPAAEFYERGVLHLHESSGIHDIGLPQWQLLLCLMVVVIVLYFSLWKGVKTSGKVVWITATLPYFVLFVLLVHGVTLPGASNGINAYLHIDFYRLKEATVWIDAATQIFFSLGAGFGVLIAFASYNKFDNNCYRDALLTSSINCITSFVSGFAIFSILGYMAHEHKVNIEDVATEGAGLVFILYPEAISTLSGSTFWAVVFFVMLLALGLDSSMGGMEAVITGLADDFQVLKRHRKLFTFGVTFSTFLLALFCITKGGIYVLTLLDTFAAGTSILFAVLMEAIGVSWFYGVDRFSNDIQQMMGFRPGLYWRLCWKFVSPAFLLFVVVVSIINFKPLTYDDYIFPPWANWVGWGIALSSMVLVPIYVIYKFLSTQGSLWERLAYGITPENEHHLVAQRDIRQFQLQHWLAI
Kind of test: Functional norepinephrine reuptake assay, Procedure B (6,000 cells/well).
Settings: not given
It counts as cell-based. The procedure:
For screening, 25 μl aliquots of compound solution at a 1 μM or 10 μM final concentration was delivered directly to cells.
For IC50 determinations, stock compounds were prepared at 10 mM from powder. The stock solution was diluted according to compound testing range. […] On the day of assay, 25 μl of compound solution at the specified concentrations were added to the plates containing cells. A DMSO stock of desipramine was prepared at 10 mM in DMSO and diluted for a final concentration of 20 μM to determine the non-specific reuptake.
MDCK-Net6 cells, stably transfected with human hNET (Pacholczyk, 1991), were maintained in growth media [high glucose DMEM (Gibco Cat. 11995), 10% FBS (dialyzed, heat-inactivated, Sigma, dialysed, heat inactivated, Lot# K0922 or equivalent) 1xPen/Strep, and 500 μg/ml G418 (Gibco Cat. 10131)]. Cells were plated at 300,000/T75 flask and cells split twice weekly.
Cells were plated at 50,000 cells/well (Procedure A) or 6,000 cells/well (Procedure B) on day 1 in BD Falcon Microtest 96-well sterile cell culture plates, Optilux White/Clear Bottom TC plate (VWR; # 62406-466 or equivalent) in growth media and maintained in a cell incubator (37° C., 5% CO2). On Day 2, cells were removed from the cell incubator and the growth media is replaced by 200 μl of assay buffer (25 mm HEPES 120 mM NaCL; 5 mM KCl; 2.5 mM CaCl2; 1.2 mM MgSO4; 2 mg/ml glucose (pH 7.4, 37° C.)) containing 0.2 mg/ml ascorbic acid and 1 μM parglyine. For screening, 25 μl of compound in 4% DMSO was added directly to each well and the plate was incubated for 5 minutes (37° C.). […] The reaction is aspirated from the plate and the cells washed with 250 μl of 50 mM Tris Buffer (4° C.). The plates were left to dry for 1 hour. The cells were lysed using 0.25 M NaOH solution then placed on a shake table and vigorously shaken for 10 minutes. After cell lysis, 100 μl of Microscint 20 (PerkinElmer; #87-051101) was added to the plates and the plates were sealed with film tape and replaced on the shake table for a minimum of 10 minutes. The plates were counted in a TopCount counter (PerkinElmer).
% inhibition=[1−((mean cpm test compound wells−mean cpm non-specific wells)/(mean cpm control wells−mean cpm non-specific wells))]×100
For IC50 determination, raw cpm values were generated in a data file from the TopCount counter. The data was organized using the Microsoft Excel and transferred into PRIZM graphing and statistical program, which calculated the estimated IC50 value. Calculation of IC50 values was made using non-linear regression analysis with a sigmoidal dose response with variable slope. The statistical program used wells containing ^3H norepinephrine only as the maximal NE reuptake determinant and wells containing ^3H norepinephrine plus 20 μM desipramine (AHR-9543) as the minimal NE reuptake determinant (non-specific determinant). Estimation of the IC50 value was completed on a log scale and the line was fit between the maximal and minimal NE reuptake values.
As to `CNCCC[C@H]1Cc2ccccc2N(c2c(F)cccc2F)S1(=O)=O` (single isomer, unassigned) [Example 121], half-maximal inhibition (IC50) required 52 nM.

The same test, now with this note: MDCK-Net6 cells, 6,000 cells/well, 16 nM 3H-norepinephrine; read-out: Procedure B hNET uptake IC50.
`CCNCCC1Oc2ccccc2N(c2ccccc2)S1(=O)=O` (stereo not shown) [Example 23, 2-(2,2-dioxido-1-phenyl-1H-4,2,1-benzoxathiazin-3-yl)-N-ethylethanamine]: the IC50 turned out to be 244 nM.
`CNCCCC1Oc2ccccc2N(c2ccc(C)cc2)S1(=O)=O` (stereo not shown) [Example 17, N-methyl-3-[1-(4-methylphenyl)-2,2-dioxido-1H-4,2,1-benzoxathiazin-3-yl]propan-1-amine]: the concentration for half-maximal inhibition (IC50) was 26.4 nM.
With `CNCC[C@@H]1Oc2cc(F)ccc2N(c2ccccc2)S1(=O)=O` (single isomer, unassigned) [Example 119], the IC50 came out at 494 nM.
Still for that read-out and setting: for `CNCCCC1Cc2ccccc2N(c2ccccn2)S1(=O)=O` (racemic) [Example 126, 3-(2,2-dioxido-1-pyridin-2-yl-3,4-dihydro-1H-2,1-benzothiazin-3-yl)-N-methylpropan-1-amine] the value was 98 nM.
On the same count and under the same terms, for `CNCCCC1Sc2ccccc2N(c2cccc(C)c2)S1(=O)=O` (stereo not shown) [Example 60, N-methyl-3-[1-(3-methylphenyl)-2,2-dioxido-1H-2,4,1-benzodithiazin-3-yl]propan-1-amine Hydrochloride] the value was 465 nM.
Regarding `CNCCCC1Oc2c(F)cccc2N(c2ccccc2)S1(=O)=O` (stereo not shown) [Example 47, 3-(5-fluoro-2,2-dioxido-1-phenyl-1H-4,2,1-benzoxathiazin-3-yl)-N-methylpropan-1-amine], the IC50 came to 431 nM.
Regarding `CNCCCC1Oc2cc(OC)ccc2N(c2ccccc2)S1(=O)=O` (stereo not shown) [Example 52, 3-(6-methoxy-2,2-dioxido-1-phenyl-1H-4,2,1-benzoxathiazin-3-yl)-N-methylpropan-1-amine], the IC50 was 607 nM.
The same measure, in the same setting: the figure for `CNCCC[C@@H]1Cc2ccccc2N(c2ccccc2F)S1(=O)=O` (single isomer, unassigned) [Example 75] is 3.7 nM.
For `CNCCCC1Oc2ccccc2N(c2ccccc2F)S1(=O)=O` (stereo not shown) [Example 92], the IC50 is 19 nM.
On the same count and under the same terms, for `CNCCCC1Cc2cc(F)ccc2N(c2cccc(F)c2F)S1(=O)=O` (racemic) [Example 145, 3-[1-(2,3-difluorophenyl)-6-fluoro-2,2-dioxido-3,4-dihydro-1H-2,1-benzothiazin-3-yl]-N-methylpropan-1-amine] the value was 74 nM; for `CNCCCC1Oc2cc3ccccc3cc2N(c2ccccc2)S1(=O)=O` (stereo not shown) [Example 55, 3-(2,2-dioxido-1-phenyl-1H-naphtho[2,3-e][1,3,4]oxathiazin-3-yl)-N-methylpropan-1-amine hydrochloride], 47.8 nM; for `CNCCC[C@@H]1Cc2ccccc2N(c2ccc(F)cc2F)S1(=O)=O` (single isomer, unassigned) [Example 101], 49 nM.
Same read-out and setting: the figure for `CNCCC[C@H]1Cc2cc(F)ccc2N(c2ccccc2OC)S1(=O)=O` (single isomer, unassigned) [Example 167] is 587 nM; for `CNCCC[C@H]1Oc2cc(F)ccc2N(c2ccccc2F)S1(=O)=O` (single isomer, unassigned) [Example 131, Hydrochloride] it is 31 nM; for `CNCCCC1Cc2ccccc2N(c2ccc(F)cc2F)S1(=O)=O` (racemic) [Example 99, 3-[1-(2,4-difluorophenyl)-2,2-dioxido-3,4-dihydro-1H-2,1-benzothiazin-3-yl]-N-methylpropan-1-amine] it is 62 nM.
The same measure, in the same setting: for `CNCCCC1Cc2ccccc2N(c2c(F)cccc2F)S1(=O)=O` (racemic) [Example 120, 3-[1-(2,6-difluorophenyl)-2,2-dioxido-3,4-dihydro-1H-2,1-benzothiazin-3-yl]-N-methylpropan-1-amine] the value was 10 nM.
Take `CNCCC[C@@H]1Oc2cc(F)ccc2N(c2ccccc2F)S1(=O)=O` (single isomer, unassigned) [Example 130, Hydrochloride]: the IC50 was 45 nM.
The same measure, in the same setting: the figure for `CN(CCCC1Oc2ccccc2N(c2ccccc2)S1(=O)=O)C1CCCCC1` (stereo not shown) [Example 85, N-[3-(2,2-dioxido-1-phenyl-1H-4,2,1-benzoxathiazin-3-yl)propyl]-N-methylcyclo hexanamine Hydrochloride] is 1920 nM; for `CNCCCC1Sc2ccccc2N(c2ccc(Cl)cc2)S1(=O)=O` (stereo not shown) [Example 67, 3-[1-(4-chlorophenyl)-2,2-dioxido-1H-2,4,1-benzodithiazin-3-yl]-N-methylpropan-1-amine Hydrochloride] it is 1500 nM; for `CNCCCC1Cc2ccccc2N(c2ccccc2F)S1(=O)=O` (stereo not shown) [Example 73, 3-[1-(2-fluorophenyl)-2,2-dioxido-3,4-dihydro-1H-2,1-benzothiazin-3-yl]-N-methylpropan-1-amine Hydrochloride] it is 17.7 nM.
Still for that read-out and setting: the figure for `CNCCCC1Sc2ccccc2N(c2ccc(C)cc2)S1(=O)=O` (stereo not shown) [Example 63, N-methyl-3-[1-(4-methylphenyl)-2,2-dioxido-1H-2,4,1-benzodithiazin-3-yl]propan-1-amine Hydrochloride] is 156 nM.
With `CNCCCC1Cc2cc(F)ccc2N(c2ccc(F)cc2F)S1(=O)=O` (racemic) [Example 111, 3-[1-(2,4-difluorophenyl)-6-fluoro-2,2-dioxido-3,4-dihydro-1H-2,1-benzothiazin-3-yl]-N-methylpropan-1-amine], the IC50 came out at 92 nM.
On the same count and under the same terms, the figure for `CNCCC[C@H]1Cc2cc(Cl)ccc2N(c2ccccc2F)S1(=O)=O` (single isomer, unassigned) [Example 176] is 20 nM; for `O=S1(=O)C(CCCNC2CC2)Oc2ccccc2N1c1ccccc1` (stereo not shown) [Example 40, N-[3-(2,2-dioxido-1-phenyl-1H-4,2,1-benzoxathiazin-3-yl)propyl]cyclopropanamine] it is 1080 nM; for `CNCCCC1Cc2cc(F)ccc2N(c2ccccc2C)S1(=O)=O` (racemic) [Example 160, 3-[6-fluoro-1-(2-methylphenyl)-2,2-dioxido-3,4-dihydro-1H-2,1-benzothiazin-3-yl]-N-methylpropan-1-amine] it is 142 nM.
Consider `CNCCCC1Oc2cccc(C)c2N(c2ccccc2)S1(=O)=O` (stereo not shown) [Example 49, N-methyl-3-(8-methyl-2,2-dioxido-1-phenyl-1H-4,2,1-benzoxathiazin-3-yl)propan-1-amine], for which the IC50 amounted to 900 nM.
Take `CNCCCC1Cc2cc(F)ccc2N(c2ccccc2OC)S1(=O)=O` (racemic) [Example 166, 3-[6-fluoro-1-(2-methoxyphenyl)-2,2-dioxido-3,4-dihydro-1H-2,1-benzothiazin-3-yl]-N-methylpropan-1-amine]: the IC50 was determined as 304 nM.
For the molecule `CN(C)CC1Oc2ccccc2N(c2ccccc2)S1(=O)=O` (stereo not shown) [Example 134, 1-(2,2-dioxido-1-phenyl-1H-4,2,1-benzoxathiazin-3-yl)-N,N-dimethylmethanamine], the IC50 was determined as 788 nM.
On the same count and under the same terms, the figure for `CNCCCC1Oc2cccc(F)c2N(c2ccccc2)S1(=O)=O` (stereo not shown) [Example 48, 3-(8-fluoro-2,2-dioxido-1-phenyl-1H-4,2,1-benzoxathiazin-3-yl)-N-methylpropan-1-amine] is 636 nM.

The same test, now with this note: MDCK-Net6 cells, 6,000 cells/well; Conc 6000 nM (6 μM); read-out: Procedure B hNET uptake (% inhibition).
Turning to `CC1CN(CCC2Oc3ccccc3N(c3ccccc3)S2(=O)=O)CC(C)N1` (stereo not shown) [Example 79, 3-[2-(3,5-dimethylpiperazin-1-yl)ethyl]-1-phenyl-1H-4,2,1-benzoxathiazine 2,2-dioxide hydrochloride], the inhibition at 6 µM worked out at 21%.
Same read-out and setting: the figure for `O=S1(=O)C(CCN2CCCCC2)Oc2ccccc2N1c1ccccc1` (stereo not shown) [Example 78, 1-phenyl-3-(2-piperidin-1-ylethyl)-1H-4,2,1-benzoxathiazine 2,2-dioxide hydrochloride] is 45%; for `CNCCCC1Oc2ccccc2N(c2cnc3ccccc3c2)S1(=O)=O` (stereo not shown) [Example 57, 3-(2,2-dioxido-1-quinolin-3-yl-1H-4,2,1-benzoxathiazin-3-yl)-N-methylpropan-1-amine] it is 41%; for `CN(CCCC1Oc2ccccc2N(c2ccccc2)S1(=O)=O)C1CCCCC1` (stereo not shown) [Example 85, N-[3-(2,2-dioxido-1-phenyl-1H-4,2,1-benzoxathiazin-3-yl)propyl]-N-methylcyclo hexanamine Hydrochloride] it is 62%.
